Common to all, as to type: functional
One assay relates to Pseudomonas aeruginosa. Kind of assay: Antibacterial activity against Pseudomonas aeruginosa ATCC 10145 after 24 hrs by serial dilution method.
Another assay concerns Bacillus subtilis. The assay can be described thus: Antibacterial activity against Bacillus subtilis ATCC 6633 after 24 hrs by serial dilution method.
The subject of another assay is Staphylococcus aureus. Kind of assay: Antibacterial activity against Staphylococcus aureus ATCC 25923 after 24 hrs by serial dilution method.
The subject of the next assay is Escherichia coli. The assay can be described thus: Antibacterial activity against Escherichia coli ATCC 23556 after 24 hrs by serial dilution method.
The test system of a further assay is Nakaseomyces glabratus. Kind of assay: Antifungal activity against Candida glabrata after 48 hrs by serial dilution method.
The subject of a further assay is Pichia kudriavzevii. The assay can be described thus: Antifungal activity against Candida krusei ATCC 6258 after 48 hrs by serial dilution method. To be noted: ATCC 6258, 48 h.
Another assay deals with Candida albicans. Kind of assay: Antifungal activity against Candida albicans after 48 hrs by serial dilution method.

In brackets after ≈: the same amount, converted by molar mass.

The term MIC denotes the smallest concentration in the dilution series that meets the test's criterion for growth inhibition. As for `CN(C)[C@@H]1C(O)=C(C(N)=O)C(=O)[C@@]2(O)C(O)=C3C(=O)c4c(O)cccc4[C@@](C)(O)[C@H]3C[C@@H]12` [TETRACYCLINE], the MIC in the assay on Pseudomonas aeruginosa (ATCC 10145, 24 h) turned out to be 50 µg/mL (≈ 113 µM); in the assay on Bacillus subtilis (ATCC 6633, 24 h) it was 1.56 µg/mL (≈ 3.51 µM); with Staphylococcus aureus (ATCC 25923, 24 h) it was 1.56 µg/mL (≈ 3.51 µM); against Escherichia coli (ATCC 23556, 24 h), 3.12 µg/mL (≈ 7.02 µM).
On to `O=C(Nc1ccc2oc(Cc3ccccc3)nc2c1)c1ccccc1`, for which the MIC stood at 100 µg/mL (≈ 305 µM) in the assay with Pseudomonas aeruginosa (ATCC 10145, 24 h); 25 µg/mL (≈ 76.1 µM) in the assay on Nakaseomyces glabratus; 50 µg/mL (≈ 152 µM) against Bacillus subtilis (ATCC 6633, 24 h); 200 µg/mL (≈ 609 µM) with Staphylococcus aureus (ATCC 25923, 24 h); 12.5 µg/mL (≈ 38.1 µM) against Pichia kudriavzevii; 100 µg/mL (≈ 305 µM) against Escherichia coli (ATCC 23556, 24 h). In addition, the lowest concentration to inhibit growth against Candida albicans (MIC) was 50 µg/mL (≈ 152 µM).
Consider `O=C(Cc1ccccc1)Nc1ccc2oc(Cc3ccc(Cl)cc3)nc2c1`, for which the MIC against Pseudomonas aeruginosa (ATCC 10145, 24 h) came to 25 µg/mL (≈ 66.3 µM); against Nakaseomyces glabratus it was 25 µg/mL (≈ 66.3 µM); with Bacillus subtilis (ATCC 6633, 24 h) it was 25 µg/mL (≈ 66.3 µM); against Staphylococcus aureus (ATCC 25923, 24 h), 50 µg/mL (≈ 133 µM); in the assay with Pichia kudriavzevii, 25 µg/mL (≈ 66.3 µM); in the assay on Escherichia coli (ATCC 23556, 24 h), 50 µg/mL (≈ 133 µM). The same compound gave an MIC in the assay on Candida albicans of 25 µg/mL (≈ 66.3 µM).
Consider `O=C(Nc1ccc2oc(Cc3ccccc3)nc2c1)c1ccc(F)cc1`, for which the MIC stood at 25 µg/mL (≈ 72.2 µM) with Pseudomonas aeruginosa (ATCC 10145, 24 h); 25 µg/mL (≈ 72.2 µM) in the assay with Nakaseomyces glabratus; 25 µg/mL (≈ 72.2 µM) in the assay on Bacillus subtilis (ATCC 6633, 24 h); 50 µg/mL (≈ 144 µM) in the assay with Staphylococcus aureus (ATCC 25923, 24 h); 50 µg/mL (≈ 144 µM) in the assay on Pichia kudriavzevii; 50 µg/mL (≈ 144 µM) in the assay with Escherichia coli (ATCC 23556, 24 h). Further, the MIC with Candida albicans was 12.5 µg/mL (≈ 36.1 µM).
In the case of `Cc1ccc(CC(=O)Nc2ccc3oc(Cc4ccc(Cl)cc4)nc3c2)cc1`, the minimum inhibitory concentration (MIC) with Pseudomonas aeruginosa (ATCC 10145, 24 h) was 25 µg/mL (≈ 64 µM); with Nakaseomyces glabratus, 12.5 µg/mL (≈ 32 µM); with Bacillus subtilis (ATCC 6633, 24 h), 25 µg/mL (≈ 64 µM); with Staphylococcus aureus (ATCC 25923, 24 h), 100 µg/mL (≈ 256 µM); with Pichia kudriavzevii, 12.5 µg/mL (≈ 32 µM); in the assay with Escherichia coli (ATCC 23556, 24 h) it was 50 µg/mL (≈ 128 µM). Besides, it took 12.5 µg/mL (≈ 32 µM) to inhibit growth with Candida albicans (MIC).
For `O=C(Cc1ccccc1)Nc1ccc2oc(Cc3ccccc3)nc2c1`, the minimal inhibitory concentration (MIC) against Pseudomonas aeruginosa (ATCC 10145, 24 h) amounted to 50 µg/mL (≈ 146 µM); against Nakaseomyces glabratus, 25 µg/mL (≈ 73 µM); in the assay on Bacillus subtilis (ATCC 6633, 24 h), 25 µg/mL (≈ 73 µM); with Staphylococcus aureus (ATCC 25923, 24 h) it was 25 µg/mL (≈ 73 µM); in the assay with Pichia kudriavzevii, 12.5 µg/mL (≈ 36.5 µM); against Escherichia coli (ATCC 23556, 24 h) it was 25 µg/mL (≈ 73 µM). In addition, it took 12.5 µg/mL (≈ 36.5 µM) to inhibit growth against Candida albicans (MIC).
Consider `CCc1ccc(C(=O)Nc2ccc3oc(Cc4ccc(Cl)cc4)nc3c2)cc1`, for which the MIC against Pseudomonas aeruginosa (ATCC 10145, 24 h) came out at 50 µg/mL (≈ 128 µM); in the assay on Nakaseomyces glabratus it was 25 µg/mL (≈ 64 µM); against Bacillus subtilis (ATCC 6633, 24 h) it was 50 µg/mL (≈ 128 µM); in the assay on Staphylococcus aureus (ATCC 25923, 24 h), 50 µg/mL (≈ 128 µM); in the assay with Pichia kudriavzevii, 25 µg/mL (≈ 64 µM); against Escherichia coli (ATCC 23556, 24 h), 50 µg/mL (≈ 128 µM). Also, the MIC against Candida albicans is 25 µg/mL (≈ 64 µM).
Take `CC(C)(C)c1ccc(C(=O)Nc2ccc3oc(Cc4ccccc4)nc3c2)cc1`: the MIC in the assay on Pseudomonas aeruginosa (ATCC 10145, 24 h) was 25 µg/mL (≈ 65 µM); against Nakaseomyces glabratus, 25 µg/mL (≈ 65 µM); against Bacillus subtilis (ATCC 6633, 24 h) it was 50 µg/mL (≈ 130 µM); against Staphylococcus aureus (ATCC 25923, 24 h) it was 200 µg/mL (≈ 520 µM); against Pichia kudriavzevii it was 25 µg/mL (≈ 65 µM); in the assay with Escherichia coli (ATCC 23556, 24 h), 25 µg/mL (≈ 65 µM). Further, the MIC against Candida albicans turned out to be 50 µg/mL (≈ 130 µM).
Regarding `Clc1cc(Cl)c(OCC#CI)cc1Cl` [HALOPROGIN], inhibition of growth against Candida albicans (MIC) required 3.12 µg/mL (≈ 8.63 µM).
On the same count and under the same terms, as for `Clc1ccccc1C(c1ccccc1)(c1ccccc1)n1ccnc1` [CLOTRIMAZOLE], the figure is 6.25 µg/mL (≈ 18.1 µM).
As for `CC1(C)S[C@@H]2[C@H](NC(=O)[C@H](N)c3ccccc3)C(=O)N2[C@H]1C(=O)O` [AMPICILLIN], the MIC in the assay on Pseudomonas aeruginosa (ATCC 10145, 24 h) is greater than 200 µg/mL; against Bacillus subtilis (ATCC 6633, 24 h), 1.56 µg/mL (≈ 4.46 µM); in the assay on Staphylococcus aureus (ATCC 25923, 24 h), 1.56 µg/mL (≈ 4.46 µM); with Escherichia coli (ATCC 23556, 24 h) it was 12.5 µg/mL (≈ 35.8 µM).
For GENTAMICIN, the minimum inhibitory concentration (MIC) against Pseudomonas aeruginosa is 12.5 µg/mL; in the assay with Bacillus subtilis it was 1.56 µg/mL; with Staphylococcus aureus, 3.12 µg/mL; in the assay with Escherichia coli, 12.5 µg/mL.
`CN[C@@H]1[C@H](O[C@H]2[C@H](O[C@H]3[C@H](O)[C@@H](O)[C@H](N=C(N)N)[C@@H](O)[C@@H]3N=C(N)N)O[C@@H](C)[C@]2(O)C=O)O[C@@H](CO)[C@H](O)[C@H]1O` (stereo in doubt) [STREPTOMYCIN]: the MIC came to 100 µg/mL (≈ 172 µM) against Pseudomonas aeruginosa (ATCC 10145, 24 h); 13 µg/mL (≈ 22.4 µM) with Nakaseomyces glabratus; 50 µg/mL (≈ 86 µM) against Bacillus subtilis (ATCC 6633, 24 h); 3.12 µg/mL (≈ 5.36 µM) in the assay with Staphylococcus aureus (ATCC 25923, 24 h); 1.56 µg/mL (≈ 2.68 µM) against Escherichia coli (ATCC 23556, 24 h).
For `Clc1ccc(COC(Cn2ccnc2)c2ccc(Cl)cc2Cl)c(Cl)c1` (stereo not drawn) [MICONAZOLE], the minimum inhibitory concentration (MIC) against Nakaseomyces glabratus was found to be 3.12 µg/mL (≈ 7.5 µM); in the assay on Pichia kudriavzevii it was 1.56 µg/mL (≈ 3.75 µM); with Candida albicans it was 3.12 µg/mL (≈ 7.5 µM).
For the compound `CC1(C)S[C@@H]2[C@H](NC(=O)[C@H](N)c3ccc(O)cc3)C(=O)N2[C@H]1C(=O)O` [AMOXICILLIN], the MIC against Pseudomonas aeruginosa (ATCC 10145, 24 h) is greater than 200 µg/mL; against Bacillus subtilis (ATCC 6633, 24 h) it was 1.56 µg/mL (≈ 4.27 µM); in the assay on Staphylococcus aureus (ATCC 25923, 24 h) it was 1.56 µg/mL (≈ 4.27 µM); in the assay with Escherichia coli (ATCC 23556, 24 h) it was 3.12 µg/mL (≈ 8.54 µM).
On to `O=C(O)c1cn(C2CC2)c2cc(N3CCNCC3)c(F)cc2c1=O` [CIPROFLOXACIN], for which the minimal inhibitory concentration (MIC) in the assay on Pseudomonas aeruginosa (ATCC 10145, 24 h) was found to be 0.78 µg/mL (≈ 2.35 µM); against Bacillus subtilis (ATCC 6633, 24 h), 1.56 µg/mL (≈ 4.71 µM); against Staphylococcus aureus (ATCC 25923, 24 h) it was 3.12 µg/mL (≈ 9.42 µM).

Values taken from ChEMBL document CHEMBL1147878, “Synthesis and in vitro antimicrobial activity of new 2-[p-substituted-benzyl]-5-[substituted-carbonylamino]benzoxazoles” (2007).
